Data on 4 compounds can be found in publication PMC11815855, “Exploring the Structure–Activity Relationships of Albumin-Targeted Picoplatin-Based Platinum(IV) Prodrugs” (Inorganic Chemistry, 2025).

Marks after values point to notes of the source that are not given here.

The term IC50 denotes the concentration at which inhibition is half-maximal. Higher therefore signals weaker potency in that assay.

Data set [1] deals with A2780/wt ovarian cancer cells. Kind of data set: MTT-based cell viability assay, A2780/wt, 72 h. Details: species or system human. The following applies: 72 h drug exposure, means of independent experiments. The source says:
(§1) For the cell culture assays, the human ovarian model A2780/wt and its corresponding cisplatin-resistant subline A2780/cis (both purchased from Sigma and cultured in RPMI1640 medium), the human colorectal cancer model HCT116 (cultured in McCoy′s medium), and the murine (Balb/c) colorectal cancer model CT26 (cultured in DMEM/F-12 (1:1) medium) were used. The colon cancer models were purchased from the American Type Culture Collection (ATCC). The media were supplemented with 10% FCS (purchased from PAA Linz, Austria). To maintain drug resistance of A2780/cis, the subline was cultivated under continuous selection pressure (1 μM cisplatin). The selection drug was removed 1 week before the experiments were performed. Cell cultures were maintained at 37 °C in humidified atmosphere containing 5% CO2. All cultures were free of antibiotics and regularly checked for mycoplasma contamination. All cell culture media and reagents were purchased from Sigma-Aldrich Austria. All investigated drugs were dissolved in either water (oxaliplatin, carboplatin) or DMF before further dilution in cell culture medium. DMF concentrations were always below 0.5%.
(§2) Subsequently, the cells were incubated with the tested compounds in rising concentrations. […] The received data were visualized as dose–response curves by Graph Pad Prism 5 software (Graph Pad software, USA).

Data set [2] is described as follows: Reduction of platinum(IV)-succinimide complexes with 10 equiv GSH, UHPLC. It counts as physicochemical. The following applies: 1 mM, 150 mM PB pH 7.4, 20 °C, 5 min. The source says:
It is well-known that platinum(IV) complexes derived from, e.g., oxaliplatin or carboplatin, bearing leaving groups other than chlorido ligands, have distinctly slower reduction rates compared to cisplatin(IV) analogs.[54] This can be explained by a bridging interaction between the chlorido ligands and the reducing agent, which facilitates electron transfer to the platinum center.[55] […] The reductive behavior was also investigated in the presence of 10 equiv GSH in coherence with the above investigated interactions of platinum(II) with GSH (Figure S8).
(§3) PB (150 mM, pH 7.4) containing 1 mM Pt compound was incubated at 20 °C with and without the addition of 10 equiv L-ascorbic acid or reduced GSH. The reaction was monitored on a Thermo Scientific Dionex UltiMate 3000 UHPLC-system using a Waters Acquity UPLC BEH C18 1.7 μm, 3.0 × 50 mm column. Milli-Q water containing 0.1% formic acid and acetonitrile containing 0.1% formic acid were used as eluents. A gradient of 5–95% over 5 min was used with a flow of 0.6 mL/min. To evaluate the reaction process, we used the peak area of the parental complex.

The test system of data set [3] is HCT116 colon cancer cells. The data set can be described thus: MTT-based cell viability assay, HCT116, 72 h. Set-up: species or system human. The following applies: 72 h drug exposure.
Description: as §1, §2

For data set [4], the system named is CT26 colon cancer cells. Kind of data set: MTT-based cell viability assay, CT26, 72 h. The following applies: 72 h drug exposure. Set-up: species or system murine.
Description: as §1, §2

Data set [5] in a line: Reduction kinetics of platinum(IV)-succinimide complexes with AA, UHPLC. It counts as physicochemical. The following applies: 1 mM, 150 mM PB pH 7.4, 20 °C. How it is done: (§4) Platinum(IV) prodrugs need to be reduced in the tumor environment to release the cytotoxic platinum(II) complexes. Thus, the reduction properties of Pico-Succ, PicoCarbo-Succ, and PicoOxali-Succ were investigated. As mentioned above, succinimide complexes were used for these studies to avoid competitive hydrolysis of the maleimide moiety. All platinum(IV)-succinimide complexes were incubated in both the absence and presence of a 10-fold excess L-ascorbic acid (AA) in PB at pH 7.4 and 20 °C over 6 h. The amount of remaining intact platinum(IV) complex at given time points was measured via ultrahigh performance liquid chromatography (UHPLC), as shown in Figure 2. Pico-Succ was reduced extremely fast, with only traces of the original complex left in the first measurement after ∼5 min of incubation. Even with equimolar amounts of AA, 90% of Pico-Succ was already reduced after ∼5 min (Figure S6). This level of reductive instability is exceptionally high, even when compared to the “fast” reducing cisplatin(IV) prodrugs, which show a complete conversion after ∼10 h in the presence of 10 equiv AA.[41],[53]
as §3

Data set [6] has as its system A2780/cis ovarian cancer cells. Kind of data set: MTT-based cell viability assay, A2780/cis (cisplatin-resistant), 72 h. Set-up: species or system human. As to conditions: for IC50: 72 h drug exposure, cisplatin-resistant subline, means of independent experiments; for IC50 / IC50 in A2780/cis compared to A2780/wt: MTT-based assay; for RF (resistance factor): fold-change between IC50 values of A2780/cis:A2780/wt; for RF (resistance factor) / IC50 in A2780/cis compared to A2780/wt: 72 h.
Description: as §1, §2

Data set [7] deals with HCT116 colon cancer cells. The data set can be described thus: Colony formation (clonogenic) assay, HCT116, 7 days. The following applies: for IC50: 7 days drug exposure, clonogenic assay. The format is cell-based, human.
Description: as §1
(§5) Then, cells were exposed to the indicated drugs in rising concentrations. After 7 days, the cells were fixed with methanol for 20 min at 4 °C and stained with crystal violet 5 (0.01% in PBS). The fluorescence of the crystal violet was detected by the Typhoon scanner (Typhoon TRIO Variable Mode Imager, GE Healthcare Life Sciences) after excitation by the red laser (633 nm). Quantification was done with ImageJ software.

The next data set addresses albumin (Bos taurus, UniProt P02769). Kind of data set: Albumin binding and stability in phosphate-buffered FCS, SEC-ICP-MS. The following applies: 50 μM in FCS (150 mM PB, pH 7.4), 37 °C, 1 h. The procedure: FCS was purchased from Sigma-Aldrich and buffered with 150 mM phosphate pH 7.4 in order to guarantee a stable pH. The platinum(IV) complexes were dissolved in 150 mM PB (pH 7.4) at a concentration of 5 mM and diluted 1:100 in buffered serum to obtain a final concentration of 50 μM. […] Between each sample, a pure water blank was measured. […] Oxygen (purity 5.5, Messer Austria GmbH, Gumpoldskirchen, Austria) was used as the reaction gas.

The nature of data set [8]: Reduction with 10 equiv AA at pH 6.0 and 37 °C, UHPLC. It counts as physicochemical. As to conditions: 700 μM, 50 mM PB pH 6.0, 37 °C. An excerpt:
(§6) To explain the rather unusual in vivo findings, especially with respect to Pico-Mal, we hypothesized that inefficient reductive release of the platinum(II) core from albumin due to steric hindrance of the 2-picoline could provide a plausible explanation for the lack of antitumor activity despite a favorable pharmacokinetic profile. […] To gain insights into whether the molecular weight and thus steric demands of the reducing agent impact the reduction of picoplatin(IV) derivatives, Pico-Succ and the reference complex Cis-Succ were analyzed in the presence of cytochrome C (CytC; ∼12,000 g/mol) or AA (176 g/mol). Therefore, Pico-Succ and Cis-Succ (for synthesis and ^1H NMR characterization, see experimental part and Scheme S1) were coincubated at pH 6.0 with 0.1 equiv CytC[60] and 10 equiv reduced NADH or with 10 equiv AA at 37 °C over 4 h, and the reduction kinetics were compared relatively. The amount of remaining intact platinum(IV) complex at given time points was measured via UHPLC (Figure 6). […]
(§7) PB (50 mM, pH 6.0) containing 700 μM Pt compound was incubated at 37 °C with the addition of 0.1 equiv horse heart CytC and 10 equiv reduced NADH or with 10 equiv L-ascorbic acid. The reaction was monitored on a Thermo Scientific Dionex UltiMate 3000 UHPLC-system using a Waters Acquity UPLC BEH peptide C18 1.7 μm 2.1 × 100 mm column. […]

A further data set deals with T1, horse heart CytC (Equus caballus, UniProt P00004).
T1 construct: 0.1 equiv horse heart CytC; from tissue; host or cells: horse heart
Kind of data set: Reduction with cytochrome C and NADH, UHPLC. It counts as biochemical. The following applies: 700 μM, 0.1 equiv CytC and 10 equiv NADH, 50 mM PB pH 6.0, 37 °C.
Description: as §6, §7

In data set [9] the test system is CT26 colon cancer cells. Kind of data set: Colony formation (clonogenic) assay, CT26, 7 days. The format is cell-based, murine. The following applies: 7 days drug exposure.
Description: as §1, §5

Data set [10] is described as follows: Hydrolytic stability of platinum(IV)-succinimide complexes in PB without AA, UHPLC. The format is physicochemical. As to conditions: 1 mM, 150 mM PB pH 7.4, 20 °C. How it is done: as §4
PB (150 mM, pH 7.4) containing 1 mM Pt compound was incubated at 20 °C with and without the addition of 10 equiv L-ascorbic acid or reduced GSH. The reaction was monitored on a Thermo Scientific Dionex UltiMate 3000 UHPLC-system using a Waters Acquity UPLC BEH C18 1.7 μm, 3.0 × 50 mm column. […]

The test system of data set [11] is CT26 allografts. As to conditions: carboplatin 60 mg/kg i.v. once a week for two weeks, Figure S11.
Description: days after first treatment
Balb/c mice. Mice were treated i.v. with the maximal tolerated dose of the respective drug and compared
to the solvent control. […] Oxaliplatin (9
mg/kg) was applied twice a week for two weeks. Tumor volume data are presented as means ± SEM. The
overall survival is depicted via a Kaplan –Meier curve.
Data set [12] is described as follows: Interaction of platinum(II) complexes with 10 equiv GSH, NMR. As to conditions: 1 mM complex, 10% D2O/90% PBS pH 7.4, 37 °C, 8 h, 1H NMR. The format is physicochemical. How it is done: The amount of remaining platinum(II) complex was monitored via ^1H NMR spectroscopy and, particularly for ^15N-cisplatin, via [^1H, ^15N] heteronuclear single quantum coherence (HSQC) NMR spectroscopy (Figure 1).[47]
(§8) An 1 mM solution of Pt compound was incubated in a mixture of 90% PB or PBS (150 mM, pH 7.4) and 10% D2O at 37 °C with and without the addition of 10 equiv GSH. The reaction was monitored with ^1H or [^1H, ^15N] […] The reference spectrum was shifted with a value of −0.5 ppm compared to the original ppm value calibrated to D2O before overlay with a spectrum at a single time point. In case of ^15N-cisplatin, the cross-peak of the parental complex in [^1H, ^15N] HSQC at time point 0 h was used as reference, and spectral overlay was achieved by shifting the 2D spectra at all given time points (2, 4, 6, and 8 h) with vertical steps of +14 ppm compared to the original ^15N NMR ppm value of the parental complex.

A short description of data set [13]: Stability of platinum(II) complexes in PBS or PB, NMR. It counts as physicochemical. The following applies: 1 mM, pH 7.4, 37 °C, 8 h incubation, no GSH. The procedure: as §8
Data set [14] concerns CT26 allografts. As to conditions: oxaliplatin 9 mg/kg i.v. twice a week for two weeks, Figure S11 ref Schueffl et al, Chem. Sci. 2021, 12, 12587-12599; cited from earlier work.

T1 sequence (P00004 whole entry): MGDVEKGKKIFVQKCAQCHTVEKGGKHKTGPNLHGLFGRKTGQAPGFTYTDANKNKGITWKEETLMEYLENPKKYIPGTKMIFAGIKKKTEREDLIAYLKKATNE
Sequence of albumin (P02769 25-607): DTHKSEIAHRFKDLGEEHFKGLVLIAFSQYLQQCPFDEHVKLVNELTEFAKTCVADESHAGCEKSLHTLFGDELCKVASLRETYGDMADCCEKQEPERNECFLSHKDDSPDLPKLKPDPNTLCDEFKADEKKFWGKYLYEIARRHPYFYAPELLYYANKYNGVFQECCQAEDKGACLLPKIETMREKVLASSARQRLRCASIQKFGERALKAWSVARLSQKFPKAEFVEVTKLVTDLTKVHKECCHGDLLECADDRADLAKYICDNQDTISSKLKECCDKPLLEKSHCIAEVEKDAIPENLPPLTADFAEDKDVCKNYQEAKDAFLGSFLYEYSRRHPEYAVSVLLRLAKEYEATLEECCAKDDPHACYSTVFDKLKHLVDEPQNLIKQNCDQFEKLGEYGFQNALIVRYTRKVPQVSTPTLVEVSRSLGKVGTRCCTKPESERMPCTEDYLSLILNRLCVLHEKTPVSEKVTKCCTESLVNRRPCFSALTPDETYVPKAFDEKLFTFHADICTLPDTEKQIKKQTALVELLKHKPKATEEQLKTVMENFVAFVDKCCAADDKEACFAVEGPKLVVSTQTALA

In the case of `CC(=O)[O][Pt]([Cl])([Cl])[O]C(=O)NCCN1C(=O)CCC1=O.Cc1ccccn1.N` [Pico-Succ, (OC-6-21)[Acetato(ammine)(dichlorido)(1-(2-isocyanatoethyl)pyrrolidine-2,5-dione)(2-methylpyridine)platinum(IV)]], the IC50 in data set [1] is 63.2 µM; in data set [3], greater than 100 µM; in the data set with CT26 colon cancer cells [4], 77.8 µM; in data set [6], greater than 100 µM; in [7] it was 32.1 µM; with CT26 colon cancer cells [9], 30.9 µM. The “original compound remaining after 5 min with 10 equiv GSH” value in data set [2] is given as “only traces”. In addition, in data set [5] (10 equiv AA, first measurement ∼5 min), the “original complex left after ∼5 min with 10 equiv AA” value was “only traces”. Besides, the “complex reduced after ∼5 min with equimolar AA” value in data set [5] (equimolar AA, ∼5 min) was determined as 90%. The “RF (resistance factor)” value in [6] is listed as greater than 1.6. Also, in [7] (HCT116 and CT26, colony formation 7 days compared to MTT 72 h), the “reduction of IC50 values, 7 days vs 72 h” value is 2–3 fold. Besides, on albumin, the “intact platinum(IV) complex left after 1 h in FCS” value is “only traces”. For the same compound, the “reduction with AA” value in [8] is “immediate reduction”. Also, the “time to complete reduction with CytC” value at horse heart CytC is reported as 1 h. Further, the “time stable in absence of AA” value in data set [10] is given as “over 6 h”.

`N.N.O=C([O-])C1(C(=O)[O-])CCC1.[Pt+2]` [carboplatin]: the “response of CT26 allografts to carboplatin” value with CT26 allografts [11] is listed as “highly carboplatin-resistant”. Also, the IC50 in data set [1] amounted to 32 µM; in data set [3] it was 63.2 µM; in the data set with CT26 colon cancer cells [4], 22.1 µM; in data set [6], 74.9 µM; in [7] it was 7.41 µM; in the data set with CT26 colon cancer cells [9], 4.37 µM. Moreover, the “intact platinum(II) complex left after 8 h with GSH” value in [12] was roughly 60%. Moreover, the “complex left in 10% D2O/90% PBS” value in data set [13] is on record as greater than 95%. In [6], the “IC50 in A2780/cis compared to A2780/wt” value is reported as 2.3 fold. Further, the “RF (resistance factor)” value in data set [6] is reported as 2.3****.

In the case of `O=C1[O][Pt]2([NH][C@@H]3CCCC[C@H]3[NH]2)[O]C1=O` [oxaliplatin], the 50% inhibitory concentration (IC50) came out at 0.63 µM in data set [1]; 2.19 µM in data set [3]; 1.97 µM in the data set with CT26 colon cancer cells [4]; 0.68 µM in data set [6]; 1.46 µM in data set [7]; 1.81 µM with CT26 colon cancer cells [9]. For the same compound, the “complex left in 10% D2O/90% PB” value in [13] is listed as greater than 90%. The “complex left in 10% D2O/90% PBS” value in [13] is reported as “readily degraded”. For the same compound, in [6], the “IC50 in A2780/cis compared to A2780/wt” value turned out to be 1.1 fold. Also, the “RF (resistance factor)” value in data set [6] is listed as 1.1^ns. Besides, the “response of CT26 allografts to oxaliplatin” value in the data set with CT26 allografts [14] is given as “only moderately responsive”.

“(OC-6-44)[Acetatodiamminedichlorido[2-(2,5-dioxopyrrolidin-1-yl)butyl)carbamato]platinum(IV)] [Cis-Succ, reference compound]”: the “reduction with AA after 4 h” value in data set [8] (4 h) is recorded as roughly 40%. The “time to complete reduction with CytC” value at horse heart CytC is reported as 4 h.
